# According to patent US12612637B2, “Compositions and methods for DHFR tunable protein regulation” (Obsidian Therapeutics, Inc., priority 2019, dated 2026):
# Read-outs that look alike come from different tables or passages of the source.
# Columns and labels:
# [1] = cited from earlier work; for Duration of action: in vivo
# Jurkat cells = experiment: FACS GFP expression of transduced Jurkat cells treated with DMSO, 2 μM or 50 μM TMP; assay type: cell-based; conditions: 2 μM TMP or 50 μM TMP, 24 hours
# Protocol: Clones selected from the final library after 4 rounds of sorting were cloned into pLVX.AcGFP.P2A.mcherry constructs and transduced into Jurkat cells for further characterization of DD activity. Transduced Jurkat cells were plated using 500,000 cells per well (1 ml total volume per well in 24 well plate) in duplicate for each condition. Cells were treated with DMSO (control), 2 μM TMP or 50 μM trimethoprim (TMP) for 24 hours prior to fluorescent activated cell sorting (FACS). Cells were characterized by FACS to determine their levels of GFP in the presence and absence of TMP.
Compound,Cmax ([1]; IV),Cmax ([1]; PO),Duration of action [1],GFP expression upon addition of TMP (Jurkat cells)
COc1cc(Cc2cnc(N)nc2N)cc(OC)c1OC [Trimethoprim],25 µM,1 µM,2 to 72 h,
hDHFR-046: hDHFR (Y122I) library clone cloned into pLVX.AcGFP.P2A.mcherry construct,,,,higher levels of GFP expression upon addition of TMP
hDHFR-045: hDHFR (Y122I) library clone cloned into pLVX.AcGFP.P2A.mcherry construct,,,,higher levels of GFP expression upon addition of TMP
CN(Cc1cnc2nc(N)nc(N)c2n1)c1ccc(C(=O)N[C@@H](CCC(=O)O)C(=O)O)cc1 [Methotrexate],,,>12 h,
